Data from patent publication US20050281764A1, “Use of EGF-R protein tyrosine kinase inhibitors for preventing photoaging in human skin” (priority 2000, published 2005).

Key:
[1] = system: c-JUN kinase; assay: c-JUN kinase activity (phosphorylation of GST-c-jun) in cultured human keratinocytes after UV; type: cell-based
[2] = system: IRAK (IL-1 Receptor-Activated Kinase); assay: IRAK phosphorylation/activity in cells in culture; type: cell-based
From the text: IRAK (IL-1 Receptor-Activated Kinase) is a protein […] kinase (enzyme) that binds to and is activated by IL-1R (the IL-1 receptor) and in turn activates a pathway that leads to induction of c-JUN kinase, MMPs, and thus collagen degradation.

[3] = system: cJUN protein; assay: cJUN protein induced by UV radiation in skin of human volunteers (FIG. 3); type: in vivo; conditions: 5% genistein in DMSO, topical, occluded 24 hours; 2 MEDs UV; biopsy 8 hours after exposure; vs vehicle-treated skin
Experimental: The same procedure as described above was repeated, except that biopsy for cJUN protein was taken 8 hours after exposure to the UV radiation. […] The inset in the figure is a Western blot showing the amount of cJUN protein in genistein-treated versus vehicle-treated skin.

[4] = system: MMP-1 mRNA; assay: MMP-1 mRNA induced by UV radiation in skin of human volunteers (FIG. 4); type: in vivo; conditions: 5% genistein in DMSO, topical, occluded 24 hours; 2 MEDs UV; biopsy 24 hours after exposure; vs vehicle-treated skin
Experimental: The same procedure as described above was repeated, except that biopsy for MMP-1 mRNA was taken 24 hours after exposure to the UV radiation.

[5] = system: JNK; assay: JNK activation in UV-irradiated skin of human volunteers (FIG. 2); conditions: occluded 24 hours
Experimental: Human volunteers, each having given informed consent, were used to determine the effect, if any, of pretreatment of their skin with an EGF-R PTK inhibitor prior to exposure of the skin to UV radiation. […] On the hip or buttock skin of volunteers, the test solution was placed (or on adjacent areas if both solutions were used), and the areas occluded for 24 hours; thereafter, the area was biopsied, or it was exposed to 2 MEDs of UV radiation and biopsied after exposure.
After the volunteers' skin was occuled for 24 hours, it was biopsied, and other areas were exposed to 2 MEDs of UV radiation and then biopsied about 4 hours thereafter.

| phospho-GST-c-jun protein levels ([1]; cultured human keratinocytes pretreated, then exposed to UV radiation) | skin penetration of the topical solution ([5]; 5% genistein in DMSO on human hip or buttock skin, inferred from the JNK results) | Compound | phospho-GST-c-jun protein ([1]; cultured human keratinocytes not exposed to UV) | phosphorylated IRAK ([2]; PD 153035-treated cells exposed to IL-1) | IRAK activity ([2]; cells in culture treated with PD 153035 alone, no challenge) | phosphorylated IRAK ([2]; cells treated with PD 153035 and then challenged with UV or EGF) | increase in the amount of cJUN protein after UV exposure [3] | increase in MMP-1 mRNA induced by UV [4] | JNK activation ([5]; 5% genistein in DMSO, topical, 2 MEDs UV, biopsy about 4 hours after exposure) |
| --- | --- | --- | --- | --- | --- | --- | --- | --- | --- |
| comparable with the baseline levels |  | COc1cc2ncnc(Nc3cccc(Br)c3)c2cc1OC [PD 153035] | baseline amount of phospho-GST-c-jun protein | no reduction in phosphorylated IRAK | minimal baseline amount of IRAK activity | clearly had less phosphorylated IRAK |  |  |  |
|  | able to penetrate the skin | O=c1c(-c2ccc(O)cc2)coc2cc(O)cc(O)c12 [genistein, 4′,5,7-trihydroxyisoflavone] |  |  |  |  | significantly inhibited | significantly inhibited | significantly reduced the amount of JNK activated |
